Experimental findings from BindingDB's records for doi:10.1016/j.bmcl.2009.05.120 (Royal College of Surgeons In Ireland, 2009) are described below.

A short description of this test: Inhibition of PGHS-1 in human platelet rich plasma assessed as inhibition of arachidonic acid-induced platelet aggregation in human platelet rich plasma treated 5 min before arachidonic acid challenge by turbidimetry.

Structures are written as SMILES.

Turning to `COC(=O)CCCCc1cccc(C(=O)OC)c1OC(C)=O` [methyl 2-acetoxy-3-(5-methoxy-5-oxopentyl)benzoate], the IC50 (commonly the midpoint of a concentration-inhibition curve) stood at 720 µM.
